# Measured values from patent US20230129137A1, “USE OF TT-10-LOADED NANOPARTICLES FOR CARDIAC REPAIR” (THE UAB RESEARCH FOUNDATION, priority 2021, published 2023).
# Entries after “also recorded” stand apart in the source; their conditions may differ.
# What was measured:
# [1] = tested on: mouse MI; conditions: intraperitoneal injections of TT-10, mice after MI; cited from earlier work
# [2] = tested on: hiPSC-CMs; experiment: cell cycle activity and proliferation markers in cultured hiPSC-CMs (immunofluorescence); type: cell-based, human; conditions: TT-10 0, 2, 10, 20 or 100 μM, 48 hours
# Experimental: FIGS. 1A-1E show TT-10 increased cell cycle activity and proliferation in cultured human pluripotent stem sell derived cardiomyocytes (hiPSC-CMs). (FIG. 1A) TT-10 (C11H10FN3OS2; molecular weight, 283.34 Da) contains 4 C═C, 1 C═N, and 1 C═O double bond. Maximum UV/Vis absorbance is approximately 200 nm. (FIGS. 1B-1E) hiPSC-CMs were cultured under standard conditions (—) or treated with varying concentrations of TT-10 (2 μM, 10 μM, 20 μM, or 100 μM) for 48 hours and immunofluorescently stained for the human isoform of cardiac troponin T (hcTnT). Nuclei were identified by staining with 4′,6′-diamidinio-2-phenylindole (DAPI) or with DAPI and Nkx2.5 antibodies. (FIG. 1B) Proliferation was evaluated via immunofluorescence costaining for antigen KI 67 (Ki67) and quantified as the percentage of Ki67-positive cells. (FIG. 1C) hiPSC-CMs in the S phase of the cell cycle were identified via immunofluorescence costaining for bromodeoxyuridine (BrdU) incorporation and quantified as the percentage of BrdU-positive cells. (FIG. 1D) hiPSC-CMs in the M phase of the cell cycle were identified via immunofluorescence costaining for histone 3 phosphorylation (PH3) and quantified as the percentage of PH3-positive cells. (FIG. 1E) hiPSC-CMs undergoing cytokinesis were identified via immunofluorescence costaining for Aurora B (AuB) and quantified as the percentage of AuB-positive cells. Scale bar: 20 μm. All experiments were repeated 5 times. […], 1-way ANOVA with Tukey's correction.
# FIGS. 8A-8B show TT-10-NPs promoted proliferation in cultured hiPSC-CMs. hiPSC-CMs were cultured for 48 hours with or without 1 mg/mL coumarin-6-loaded TT-10-NPs (green); then, the cells were immunofluorescently stained for the human isoform of cardiac troponin I (hcTnI, gray), and nuclei were identified via DAPI staining (blue). Internalized NPs are identified with an arrow. Scale bar: 20 μm. (FIG. 8A) Proliferation was evaluated via immunofluorescence costaining for Ki67 and quantified as the percentage of Ki67-positive cells. (FIG. 8B) hiPSC-CMs in the M-phase of the cell cycle were identified via immunofluorescence costaining for PH3 and quantified as the percentage of PH3-positive cells. *P<0.01, Student's t-test; n=5 experiments.
# The effect of TT-10 (FIG. 1A) on cardiomyocyte cell cycle activity and proliferation was determined by culturing human induced pluripotent stem cell-derived cardiomyocytes (hiPSC-CMs) in varying concentrations of TT-10 (0, 2 μM, 10 μM, 20 μM or 100 μM) for 48 hours and then evaluating the presence of markers for cell proliferation (Ki67 expression, FIG. 1B), S phase (BrdU incorporation, FIG. 1C), and M phase (histone 3 phosphorylation [PH3], FIG. 1D) of the cell cycle and for cytokinesis (Aurora B, FIG. 1E). […]
# [3] = tested on: Yap; experiment: nuclear Yap in hiPSC-CMs (immunofluorescence); type: cell-based, human; conditions: 10 μM TT-10
# Experimental: (§1) FIGS. 2A-2B show TT-10 enhanced survival and nuclear Yap levels in cultured hiPSC-CMs. (FIG. 2A) Apoptosis was evaluated via TUNEL staining and quantified as the percentage of TUNEL-positive cells. (FIG. 2B) hiPSC-CMs were immunofluorescently costained for Yap, and the proportion of cells with Yap-positive nuclei is presented as a percentage. Scale bar: 20 μm. All experiments were repeated 5 times. *P<0.01, Student's t test.
# (§2) The effect of TT-10 (FIG. 1A) on cardiomyocyte cell cycle activity and proliferation was determined by culturing human induced pluripotent stem cell-derived cardiomyocytes (hiPSC-CMs) in varying concentrations of TT-10 (0, 2 μM, 10 μM, 20 μM or 100 μM) for 48 hours and then evaluating the presence of markers for cell proliferation (Ki67 expression, FIG. 1B), S phase (BrdU incorporation, FIG. 1C), and M phase (histone 3 phosphorylation [PH3], FIG. 1D) of the cell cycle and for cytokinesis (Aurora B, FIG. 1E). […] The effect of TT-10 on YAP pathway activity was also evaluated via Western blot (FIG. 7): total Yap levels in hiPSC-CMs treated with or without TT-10 were similar, but phosphorylated Yap (p-Yap) was less abundant in TT-10-treated cells.
# Immunofluorescence. […] After staining, analyses were conducted with a fluorescence microscope.
# [4] = tested on: YAP signaling pathway; experiment: YAP and phosphorylated YAP abundance by Western blot in hiPSC-CMs; type: cell-based, human; conditions: 10 μM TT-10, 48 hours, with vs without TT-10
# Experimental: as §2
# Western blot. hiPSC-CMs were lysed with M-PER Mammalian Protein Extraction Reagent (Thermo Fisher Scientific) supplemented with Halt Protease and Phosphatase Inhibitor Cocktail (Thermo Fisher Scientific). Extracted protein was quantified by BCA protein assay kit (Thermo Fisher Scientific) and denatured by heating at 95° C. for 10 minutes. Equal quantity of protein were loaded and separated by 4%-15% precast SDS-PAGE gels (Bio-Rad), and then transferred onto a polyvinylidene difluoride membrane (Bio-Rad). […] Protein signals were imaged with a Bio-Rad ChemiDoc System and analyzed by ImageJ. […]
# [5] = tested on: hiPSC-CMs; experiment: apoptosis of hiPSC-CMs by TUNEL staining; type: cell-based, human; conditions: 10 μM TT-10
# Experimental: as §1, §2
# TUNEL. TUNEL staining was performed with an in situ cell death detection kit (Roche). […] Apoptosis was quantified as the proportion of cells that were TUNEL positive.
# [6] = tested on: cardiomyocytes; conditions: cited from earlier work
smiles,measurement,setting,value
"C=CCNc1nc(N)c(C(=O)c2ccc(F)s2)s1 [TT-10, (2-(allylamino)-4-aminothiazol-5-yl)(5-fluorothiophen-2-yl)methanone]",cardiac function at later time points,[1],did not prevent progressive declines
same,cardiomyocyte cell cycle activity,[1],promoted
same,infarct size,[1],declines in infarct size; also recorded: reduced
same,measures of cardiac function vs delivery vehicle,[1],significantly better
same,proportion of cells displaying Aurora B (cytokinesis),[2],peaked at 10 to 20 μM TT-10
same,proportion of cells displaying BrdU incorporation (S phase),[2],peaked at 10 to 20 μM TT-10
same,proportion of cells displaying Ki67 (cell proliferation),[2],peaked at 10 to 20 μM TT-10
same,proportion of cells displaying histone 3 phosphorylation PH3 (M phase),[2],peaked at 10 to 20 μM TT-10
same,proportion of hiPSC-CMs with Yap-positive nuclei,[3],significantly increased
same,phosphorylated Yap (p-Yap) abundance (Western blot),[4],less abundant
same,total Yap levels (Western blot),[4],similar
same,hiPSC-CM apoptosis (TUNEL staining),[5],significantly reduced
same,cardiomyocyte survival and proliferation,[6],promoted
